Data from patent US7772267B2, “Bicyclic modulators of androgen receptor function” (Bristol-Myers Squibb Company, priority 2002, dated 2010).

Key:
AR = target: T1, AR (Rattus norvegicus, UniProt P15207)
T1 sequence (P15207 1-902): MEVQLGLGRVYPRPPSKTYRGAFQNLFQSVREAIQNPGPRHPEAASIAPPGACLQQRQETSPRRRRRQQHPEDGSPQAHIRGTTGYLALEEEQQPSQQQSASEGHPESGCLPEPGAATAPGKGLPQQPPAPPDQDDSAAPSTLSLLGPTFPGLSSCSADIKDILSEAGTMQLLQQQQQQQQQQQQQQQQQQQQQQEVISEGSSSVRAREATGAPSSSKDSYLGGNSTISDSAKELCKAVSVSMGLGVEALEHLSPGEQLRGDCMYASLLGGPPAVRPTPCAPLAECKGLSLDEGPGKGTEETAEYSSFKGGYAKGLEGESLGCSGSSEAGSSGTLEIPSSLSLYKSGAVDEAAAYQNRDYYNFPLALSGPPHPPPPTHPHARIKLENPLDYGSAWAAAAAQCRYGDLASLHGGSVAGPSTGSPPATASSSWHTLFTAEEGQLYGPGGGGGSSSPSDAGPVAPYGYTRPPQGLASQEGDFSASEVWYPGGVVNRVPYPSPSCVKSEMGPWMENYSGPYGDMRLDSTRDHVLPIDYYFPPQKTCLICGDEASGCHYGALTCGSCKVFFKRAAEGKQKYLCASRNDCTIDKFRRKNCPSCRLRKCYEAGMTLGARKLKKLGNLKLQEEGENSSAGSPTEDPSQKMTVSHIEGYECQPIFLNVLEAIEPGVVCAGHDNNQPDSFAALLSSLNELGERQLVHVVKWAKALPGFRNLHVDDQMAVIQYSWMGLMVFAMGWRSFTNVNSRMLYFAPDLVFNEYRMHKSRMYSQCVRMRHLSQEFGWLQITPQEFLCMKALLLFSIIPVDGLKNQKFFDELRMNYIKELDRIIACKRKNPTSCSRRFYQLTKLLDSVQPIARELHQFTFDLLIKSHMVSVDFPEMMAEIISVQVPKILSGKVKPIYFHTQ
Description: The activity of compounds of the present invention as AR agonists was investigated in an immature male rat model, a recognized test of anabolic effects in muscle and sustaining effects in sex organs for a given compound, as described in L. G. Hershberger et al., Proc. Soc. […] Biol. Med., 83, 175 (1953); B. L. Beyler et al, “Methods for evaluating anabolic and catabolic agents in laboratory animals”, J. Amer. Med. Women's Ass., 23, 708 (1968); H. Fukuda et al., “Investigations of the levator ani muscle as an anabolic steroid assay”, Nago Dai. Yak. Ken. Nem. 14, 84 (1966) the disclosures of which are herein incorporated by reference.
The basis of this assay lies in the well-defined action of androgenic agents on the maintenance and growth of muscle tissues and sexual accessory organs in animals and man. […] J. Anat. […] I. Quantitative data” Boll.-Soc. Ital. Biol. Sper. […] II. Electron-microscopic observations” Boll.-Soc. Ital. Biol. Sper. 42, 1600 (1966); A. Boris et al., Steroids 15, 61 (1970). As described above, the effects of androgens on maintenance of male sexual accessory organs, such as the prostate and seminal vesicles, is well described. Castration results in rapid involution and atrophy of the prostate and seminal vesicles. This effect can be reversed by exogenous addition of androgens. […]

[1] = system: endogenous glucocorticoid receptor (A549 cells); assay: In vitro assay to measure GR-induced AP-1 transrepression (luciferase reporter in A549 cells); format: cell-based; details: at a concentration of ≦10 µM; typical value for the positive control
Description: The AP-1 assay is a cell-based luciferase reporter assay. A549 cells, which contain endogenous glucocorticoid receptor, were stably transfected with an AP-1 DNA binding site attached to the luciferase gene. Cells are then grown in RPMI+10% fetal calf serum (charcoal-treated)+Penicillin/Streptomycin with 0.5 mg/mL geneticin. Cells are plated the day before the assay at approximately 40000 cells/well. On assay day, the media is removed by aspiration and 20 μL assay buffer (RPMI without phenol red+10% FCS (charcoal-treated)+Pen/Strep) is added to each well. At this point either 20 μL assay buffer (control experiments), the compounds of the present invention (“test compounds”) (dissolved in DMSO and added at varying concentrations) or dexamethasome (100 nM in DMSO, positive control) are added to each well. The plates are then pre-incubated for 15 min at 37° C., followed by stimulation of the cells with 10 ng/mL PMA. The plates are then incubated for 7 h at 37° C. after which 40 μL luciferase substrate reagent is added to each well. Activity is measured by analysis in a luminometer as compared to control experiments treated with buffer or dexamethasome. […] The control, dexamethasone, at a concentration of ≦10 µM typically suppresses activity by 65%.

In the case of `Cc1c(N2C[C@@H]3[C@@H](O)CCN3C2=O)ccc(C#N)c1Cl`, the melting point is reported as 148 to 149 °C.

With `CCC(=O)O[C@H]1CC[C@H]2[C@@H]3CCC4=CC(=O)CC[C@]4(C)[C@H]3CC[C@]12C` [TP, Testosterone Propionate] the “EC50 (increase in organ weight)” value (AR; castrated rats, organ weight increase) was ~0.03 mg and the “potency relative to free T” value (AR; higher potency than free T) was 10-30 fold.

For `C[C@@H]1C[C@H]2[C@@H]3CCC4=CC(=O)C=C[C@]4(C)[C@@]3(F)[C@@H](O)C[C@]2(C)[C@@]1(O)C(=O)CO` [dexamethasone], the “suppression of activity (% inhibition of the reporter system vs buffer control with 10 ng/mL PMA alone)” value [1] was 65%.
